Test results taken from patent publication US20250074891A1 (Anaxis Pharma Pty Ltd., priority 2021, published 2025).

Assays:
Conditions in all cases: Table 35
MLKL (full length) = MLKL (full length) (Homo sapiens (Human), UniProt Q8NB16); assay: KINOMEscan binding assay, MLKL (full length)
Description: (§1) Kinase assays. For most assays, kinase-tagged T7 phage strains were grown in parallel in 24-well blocks in an E. coli host derived from the BL21 strain. E. coli were grown to log-phase and infected with T7 phage from a frozen stock (multiplicity of infection=0.4) and incubated with shaking at 32° C. until lysis (90-150 minutes).
(§2) The Hill Slope was set to −1.

RIP3 = RIP3 (Homo sapiens (Human), UniProt Q9Y572); assay: KINOMEscan binding assay, RIP3
Description: as §1, §2

RIP1 = RIP1 (Homo sapiens (Human), UniProt Q13546); assay: KINOMEscan binding assay, RIP1
Sequence of RIP1 (Q13546 whole entry): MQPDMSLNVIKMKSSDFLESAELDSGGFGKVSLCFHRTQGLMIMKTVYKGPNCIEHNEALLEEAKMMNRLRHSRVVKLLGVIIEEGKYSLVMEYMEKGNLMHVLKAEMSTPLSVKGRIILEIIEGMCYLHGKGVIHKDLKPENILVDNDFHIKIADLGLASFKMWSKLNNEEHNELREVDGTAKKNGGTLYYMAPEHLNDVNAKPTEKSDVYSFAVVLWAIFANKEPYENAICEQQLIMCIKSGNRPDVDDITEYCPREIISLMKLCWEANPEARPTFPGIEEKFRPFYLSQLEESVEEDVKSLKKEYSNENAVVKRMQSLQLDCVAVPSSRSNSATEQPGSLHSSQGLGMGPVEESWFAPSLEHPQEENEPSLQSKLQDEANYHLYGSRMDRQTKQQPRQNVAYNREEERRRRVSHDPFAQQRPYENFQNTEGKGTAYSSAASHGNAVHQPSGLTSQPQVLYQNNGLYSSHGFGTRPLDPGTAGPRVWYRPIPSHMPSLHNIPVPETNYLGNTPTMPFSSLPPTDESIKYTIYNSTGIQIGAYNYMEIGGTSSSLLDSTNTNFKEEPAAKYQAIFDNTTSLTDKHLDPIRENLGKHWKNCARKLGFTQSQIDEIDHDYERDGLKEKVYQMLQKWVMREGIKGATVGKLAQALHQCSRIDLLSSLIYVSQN

Sequence of MLKL (full length) (Q8NB16 whole entry): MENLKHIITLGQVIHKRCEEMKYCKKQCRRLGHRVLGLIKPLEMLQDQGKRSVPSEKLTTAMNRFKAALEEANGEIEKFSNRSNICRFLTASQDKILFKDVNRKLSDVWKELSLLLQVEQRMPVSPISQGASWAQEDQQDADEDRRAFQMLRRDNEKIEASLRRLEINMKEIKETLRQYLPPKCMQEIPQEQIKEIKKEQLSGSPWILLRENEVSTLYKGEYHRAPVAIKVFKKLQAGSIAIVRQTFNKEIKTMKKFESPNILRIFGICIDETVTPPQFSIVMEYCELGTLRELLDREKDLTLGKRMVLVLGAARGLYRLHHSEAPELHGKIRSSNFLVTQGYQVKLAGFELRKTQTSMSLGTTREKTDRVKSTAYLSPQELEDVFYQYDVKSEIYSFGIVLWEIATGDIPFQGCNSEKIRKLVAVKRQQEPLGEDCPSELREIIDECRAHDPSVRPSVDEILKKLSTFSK
Sequence of RIP3 (Q9Y572 whole entry): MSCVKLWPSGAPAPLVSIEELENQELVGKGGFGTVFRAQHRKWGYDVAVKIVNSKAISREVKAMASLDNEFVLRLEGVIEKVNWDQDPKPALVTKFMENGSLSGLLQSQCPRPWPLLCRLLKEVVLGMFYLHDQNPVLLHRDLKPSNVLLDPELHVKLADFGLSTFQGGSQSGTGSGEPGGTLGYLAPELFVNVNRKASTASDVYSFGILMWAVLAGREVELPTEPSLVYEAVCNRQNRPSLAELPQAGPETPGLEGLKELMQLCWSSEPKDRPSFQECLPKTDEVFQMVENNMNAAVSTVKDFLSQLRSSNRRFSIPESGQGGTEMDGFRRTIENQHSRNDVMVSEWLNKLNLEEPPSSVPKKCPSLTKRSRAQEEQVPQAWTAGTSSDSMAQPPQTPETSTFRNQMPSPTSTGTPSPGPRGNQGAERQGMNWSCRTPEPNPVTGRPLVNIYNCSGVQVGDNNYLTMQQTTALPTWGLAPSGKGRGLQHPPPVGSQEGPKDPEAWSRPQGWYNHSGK

| Kd (MLKL (full length)) [µM] | Kd (RIP3) [µM] | Kd (RIP1) [µM] | Structure (SMILES) |
| --- | --- | --- | --- |
| < 0.01 | > 30 | > 30 | NC(=O)c1c(-c2ccc(NS(=O)(=O)C(F)F)c(OCc3ccc(F)cc3)c2)n[nH]c1Nc1cnc(C(F)(F)F)cn1 [Compound 246, 3-[4-(difluoromethanesulfonamido)-3-[(4-fluorophenyl)methoxy]phenyl]-5-{[5-(trifluoromethyl)pyrazin-2-yl]amino}-1H-pyrazole-4-carboxamide] |
| < 0.01 | > 30 | > 30 | CCS(=O)(=O)Nc1ccc(-c2n[nH]c(Nc3ccc(C(F)(F)F)cn3)c2C(N)=O)cc1 [Compound 93, 3-(4-(ethylsulfonamido)phenyl)-5-((5-(trifluoromethyl)pyridin-2-yl)amino)-1H-pyrazole-4-carboxamide] |
| < 0.01 | > 30 | > 30 | CCS(=O)(=O)Nc1ccc(-c2n[nH]c(Nc3ccnc(C)c3)c2C(N)=O)cc1 [Compound 113, 3-(4-(ethylsulfonamido)phenyl)-5-((2-methylpyridin-4-yl)amino)-1H-pyrazole-4-carboxamide] |
| < 0.01 | > 30 | > 30 | NC(=O)c1c(-c2ccc(NS(=O)(=O)C(F)(F)F)cc2)n[nH]c1Nc1cccc(C(F)(F)F)n1 [Compound 205] |
| < 0.01 | > 30 | > 30 | C[C@H](Oc1cc(-c2n[nH]c(Nc3ccccn3)c2C(N)=O)ccc1NS(=O)(=O)CC(F)(F)F)c1ccc(F)cc1 [Compound 154, (S)-3-(3-(1-(4-fluorophenyl)ethoxy)-4-((2,2,2-trifluoroethyl)sulfonamido)phenyl)-5-(pyridine-2-ylamino)-1H-pyrazole-4-carboxamide] |
| < 0.01 | > 30 | > 30 | NC(=O)c1c(-c2ccc(NS(=O)(=O)CC(F)(F)F)cc2OCc2ccc(F)cc2)n[nH]c1Nc1cccc(C(F)(F)F)n1 [Compound 140, 3-(2-((4-fluorobenzyl)oxy)-4-((2,2,2-trifluoroethyl)sulfonamido)phenyl)-5-((6-(trifluoromethyl)pyridine-2-yl)amino)-1H-pyrazole-4-carboxamide] |
| < 0.01 | > 30 | > 30 | C[C@@H](Oc1cc(-c2n[nH]c(Nc3cnccn3)c2C(N)=O)ccc1NS(=O)(=O)C(F)F)c1ccc(F)cc1 [Compound 271, (R)-3-(4-((difluoro-methyl)sulfon-amido)-3-(1-(4-fluorophenyl)ethoxy)phenyl)-5-(pyrazin-2-ylamino)-1H-pyrazole-4-carboxamide] |
| < 0.01 | > 30 | > 30 | CCS(=O)(=O)Nc1ccc(-c2n[nH]c(Nc3ccc(C(F)(F)F)nc3)c2C(N)=O)cc1OCc1ccc(F)cc1 [Compound 194] |
| < 0.01 | > 30 | > 30 | Cc1cnc(Nc2[nH]nc(-c3ccc(NS(=O)(=O)C(F)F)c(OC4(c5ccc(F)cc5)CC4)c3)c2C(N)=O)cn1 [Compound 290, 3-(4-((difluoromethyl)sulfonamido)-3-(1-(4-fluorophenyl)cyclopropoxy)phenyl)-5-((5-methylpyrazin-2-yl)amino)-1H-pyrazole-4-carboxamide] |
| < 0.01 | > 30 | > 30 | C[C@H](Oc1cc(-c2n[nH]c(Nc3cnc(C(C)(C)C)cn3)c2C(N)=O)ccc1NS(=O)(=O)C(F)F)c1ccc(F)cc1 [Compound 312, (S)-5-((5-(tert-butyl)pyrazin-2-yl)amino)-3-(4-((difluoromethyl)sulfonamido)-3-(1-(4-fluorophenyl)ethoxy)phenyl)-1H-pyrazole-4-carboxamide] |
| < 0.01 | > 30 | > 30 | C[C@H](Oc1cc(-c2n[nH]c(Nc3ncn(C)n3)c2C(N)=O)ccc1NS(=O)(=O)C(F)F)c1ccc(F)cc1 [Compound 283, (S)-3-(4-((difluoromethyl)sulfonamido)-3-(1-(4-fluorophenyl)ethoxy)phenyl)-5-((1-methyl-1H-1,2,4-triazol-3-yl)amino)-1H-pyrazole-4-carboxamide] |
| < 0.01 | > 30 | > 30 | C[C@H](Oc1cc(-c2n[nH]c(Nc3cnccn3)c2C(N)=O)ccc1NS(=O)(=O)C(F)F)c1ccc(F)cc1 [Compound 223, 3-[4-(difluoromethanesulfonamido)-3-[(1S)-1-(4-fluorophenyl)ethoxy]phenyl]-5-[(pyrazin-2-yl)amino]-1H-pyrazole-4-carboxamide] |
| < 0.01 | > 30 | > 30 | NC(=O)c1c(-c2ccc(NS(=O)(=O)CC(F)(F)F)cc2)n[nH]c1Nc1ccccn1 [Compound 268, 5-[(pyridin-2-yl)amino]-3-[4-(2,2,2-trifluoroethanesulfonamido)phenyl]-1H-pyrazole-4-carboxamide] |

Second part, the molecule before the results:

| Structure (SMILES) | Kd (MLKL (full length)) [µM] | Kd (RIP3) [µM] | Kd (RIP1) [µM] |
| --- | --- | --- | --- |
| COCC(C)(C)c1cc(Nc2[nH]nc(-c3ccc(NS(=O)(=O)C(F)F)c(O[C@@H](C)c4ccc(F)cc4)c3)c2C(N)=O)no1 [Compound 288, (S)-3-(4-((difluoromethyl)sulfonamido)-3-(1-(4-fluorophenyl)ethoxy)phenyl)-5-((5-(1-methoxy-2-methylpropan-2-yl)isoxazol-3-yl)amino)-1H-pyrazole-4-carboxamide] | < 0.01 | > 30 | > 30 |
| NC(=O)c1c(-c2ccc(NS(=O)(=O)CC(F)F)c(OCc3ccc(F)cc3)c2)n[nH]c1Nc1cnccn1 [Compound 180, 3-(4-((2,2-difluoroethyl)sulfonamido)-3-((4-fluorobenzyl)oxy)phenyl)-5-(pyrazin-2-ylamino)-1H-pyrazole-4-carboxamide] | < 0.01 | > 30 | > 30 |
| CCS(=O)(=O)Nc1ccc(-c2n[nH]c(Nc3cnccn3)c2C(N)=O)cc1OCCc1ccccc1Cl [Compound 206, 3-(3-(2-chlorophenethoxy)-4-(ethylsulfonamido)phenyl)-5-(pyrazin-2-ylamino)-1H-pyrazole-4-carboxamide] | < 0.01 | > 30 | > 30 |
| CCS(=O)(=O)Nc1ccc(-c2n[nH]c(Nc3ccnc(OC)n3)c2C(N)=O)cc1 [Compound 123, 3-(4-(ethylsulfonamido)phenyl)-5-((2-methoxypyrimidin-4-yl)amino)-1H-pyrazole-4-carboxamide] | < 0.01 | > 30 | > 30 |
| CCS(=O)(=O)Nc1ccc(-c2n[nH]c(Nc3cc(C)on3)c2C(N)=O)cc1O[C@@H](C)c1ccc(F)cc1 [Compound 317, (S)-3-(4-(ethylsulfonamido)-3-(1-(4-fluorophenyl)ethoxy)phenyl)-5-((5-methylisoxazol-3-yl)amino)-1H-pyrazole-4-carboxamide] | < 0.01 | > 30 | > 30 |
| C[C@H](Oc1cc(-c2n[nH]c(Nc3cc(C4(C(F)(F)F)CC4)on3)c2C(N)=O)ccc1NS(=O)(=O)C(F)F)c1ccc(F)cc1 [Compound 289, (S)-3-(4-((difluoromethyl)sulfonamido)-3-(1-(4-fluorophenyl)ethoxy)phenyl)-5-((5-(1-(trifluoromethyl)cyclopropyl)isoxazol-3-yl)amino)-1H-pyrazole-4-carboxamide] | < 0.01 | > 30 | > 30 |
| CCS(=O)(=O)Nc1ccc(-c2n[nH]c(Nc3cnc4ccccc4n3)c2C(N)=O)cc1 [Compound 67, 3-(4-(ethylsulfonamido)phenyl)-5-(quinoxalin-2-ylamino)-1H-pyrazole-4-carboxamide] | < 0.01 | > 30 | > 30 |
| NC(=O)c1c(-c2ccc(NS(=O)(=O)CC(F)(F)F)c(OCc3ccc(F)cc3)c2)n[nH]c1Nc1cnccn1 [Compound 170, 3-(3-((4-fluorobenzyl)oxy)-4-((2,2,2-trifluoroethyl)sulfonamido)phenyl)-5-(pyrazin-2-ylamino)-1H-pyrazole-4-carboxamide] | < 0.01 | > 30 | > 30 |
| CCS(=O)(=O)Nc1ccc(-c2n[nH]c(Nc3cnccn3)c2C(N)=O)cc1OCc1ccncc1 [Compound 28, 3-(4-(ethylsulfonamido)-3-(226yridine-4-ylmethoxy)phenyl)-5-(pyrazin-2-ylamino)-1H-pyrazole-4-carboxamide] | < 0.01 | > 30 | > 30 |
| CCS(=O)(=O)Nc1ccc(-c2n[nH]c(Nc3cnc(C(C)C)cn3)c2C(N)=O)cc1OCc1ccc(F)cc1 [Compound 34, 3-(4-(ethylsulfonamido)-3-((4-fluorobenzyl)oxy)phenyl) 5-((5-isopropylpyrazin-2-yl)amino)-1H-pyrazole-4-carboxamide] | < 0.01 | > 30 | > 30 |
| C[C@H](Oc1cc(-c2n[nH]c(Nc3cc4n(n3)CCCN(C)C4)c2C(N)=O)ccc1NS(=O)(=O)C(F)F)c1ccc(F)cc1 [Compound 318, (S)-3-(4-((difluoromethyl)sulfonamido)-3-(1-(4-fluorophenyl)ethoxy)phenyl)-5-((5-methyl-5,6,7,8-tetrahydro-4H-pyrazolo[1,5-a][1,4]diazepin-2-yl)amino)-1H-pyrazole-4-carboxamide] | < 0.01 | > 30 | > 30 |
| NC(=O)c1c(-c2ccc(NS(=O)(=O)CC(F)(F)F)c(OCc3ccc(F)cc3)c2)n[nH]c1Nc1ccnc(C(F)(F)F)n1 [Compound 186, 3-(3-((4-fluorobenzyl)oxy)-4-((2,2,2-trifluoroethyl)sulfonamido)phenyl)-5-((2-(trifluoromethyl)pyrimidin-4-yl)amino)-1H-pyrazole-4-carboxamide] | < 0.01 | > 30 | > 30 |
| CCS(=O)(=O)Nc1ccc(-c2n[nH]c(Nc3cnccn3)c2C(N)=O)cc1OCc1ccc(Cl)cn1 [Compound 242, 3-{3-[(5-chloropyridin-2-yl)methoxy]-4-ethanesulfonamidophenyl}-5-[(pyrazin-2-yl)amino]-1H-pyrazole-4-carboxamide] | < 0.01 | > 30 | > 30 |
